From patent US20200316053A1, “APPLICATION OF NOVEL TYROSINE KINASE INHIBITOR, ANLOTINIB, IN OSTEOSARCOMA AND CHONDROSARCOMA” (CHIA TAI TIANQING PHARMACEUTICAL GROUP CO., LTD., priority 2018, published 2020) come the findings set out here.

Like-named read-outs stand apart in the source and are kept apart here.

One data set concerns SJSA cells. As to the kind of experiment: Detection of cell proliferation by cck-8. The settings on record: Homo sapiens. The class given is cell-based. As for the experimental part: (§1) 1.2.1 Cell culture: Osteosarcoma cell lines 143B, […], MG63 and SJSA were cultured in DMEM complete culture medium (containing fetal bovine serum with a volume fraction of 10%, 0.1 g/L streptomycin, and 100 U/mL penicillin), and was incubated in a thermostatic incubator containing 5% CO2 (volume fraction) at 37° C. When about 85% cell confluence was reached, the cells were detached by using a mixed cell detachment solution containing 0.02% EDTA and 0.25% trypsin, and then the cells were collected, centrifuged at 1000 r/min for 3 min, and subcultured.
(§2) 1.2.2 Detection of cell proliferation by cck-8: 143B cells, U2OS cells, MG63 cells and SJSA cells in logarithmic growth phase were collected, rinsed with PBS, counted, and dispensed into separate tubes. The cells were seeded into a 96-well plate (3000 cells/well) and cultured for 24 h to allow for cell attachment. […] 100 μL of cck-8 reagent diluted 10-fold with DMEM culture medium was added into each well and the resulting mixture was incubated at 37° C. for 45 minutes. The absorbance value of the resultant in each well at 450 nm was detected by using a microplate reader.

Another data set concerns MG63 cells. The data set can be described thus: Detection of cell proliferation by cck-8. The settings on record: Homo sapiens, MG-63. Format: cell-based. As for the experimental part:
as §1, §2

A further data set deals with U2OS cells. The data set can be described thus: Detection of cell proliferation by cck-8. The class given is cell-based. The settings on record: Homo sapiens. As for the experimental part: as §1, §2
A further data set concerns 143B cells. As to the kind of experiment: Detection of cell proliferation by cck-8. The class given is cell-based. The settings on record: Homo sapiens. The protocol: as §1, §2
Data set [1] has as its system osteosarcoma cell lines 143B, U2OS, MG63 and SJSA. The data set can be described thus: Detection of cell apoptosis by flow cytometer (Annexin-V-FITC/PI), with or without cisplatin. The settings on record: 2 μM Anlotinib with 10 μM cisplatin (DDP), 24 h. Format: cell-based, Human. The protocol: 1.2.5 Detection of cell apoptosis by flow cytometer: 143B cells, U2OS cells, MG63 cells and SJSA cells were added to the liquid culture media containing 2 μM Anlotinib (with or without 10 μM cisplatin (DDP)) for cultivation. The cells were collected after 24 h, centrifuged at 1000 r/min for 1 min, and rinsed with PBS. Afterwards, an Annexin-V-FITC/PI Cell Apoptosis Detection Kit was used to detect the apoptosis of cells. The cells were added to 100 μL of 1×Binding buffer and resuspended, 5 μL of AnnexinV-FITC and 2.5 μL of PI staining reagent were added, and the mixture was shaken and mixed evenly in the dark. The resultant was reacted at room temperature for 15 min, 300 μL of 1×Binding buffer was then added, and the resulting mixture was mixed evenly and detected by a flow cytometer. The experiment was repeated 3 times.
In general terms: A flow cytometer gives signals particle by particle.

The test system is the same in data set [2]. As to the kind of experiment: Detection of cell cycle by flow cytometer. The class given is cell-based, Human. The settings on record: 0-4 μM, 24 h, PI staining. As for the experimental part:
1.2.4 Detection of cell cycle by flow cytometer: 143B cells, U2OS cells, MG63 cells and SJSA cells were added to the liquid culture media containing different amount-of-substance concentrations of Anlotinib (0 μM, 1 μM, 2 μM, and 4 μM) for cultivation. The cells were collected after 24 h, centrifuged at 1000 r/min for 1 min, rinsed with PBS, and fixed with 70% ethanol. The PI staining solution of cell cycle analysis kit was added, the mixture was incubated in the dark at room temperature for 15 min, and the detection was carried out by using a flow cytometer. Images were analyzed by using ModFit software. The experiment was repeated 3 times.

Data set [3] shares this test system. As to the kind of experiment: Transwell cell migration and invasion. The class given is cell-based, Human. The settings on record: 1 μM, 24 hours. The protocol: 1.2.6 Experimental analysis of Transwell cell migration and invasion: Cells were seeded at the upper end of the Transwell chamber (5×10^4 cells/well). 143B cells, U2OS cells, MG63 cells and SJSA cells were treated with 1 μM Anlotinib. A culture medium containing 2% serum was added to the upper end of the Transwell chamber (4 hours of pretreatment with 10% matrigel was required in the invasion experiment), and a culture medium containing 10% serum was added to the lower end. After 24 hours, the cells were fixed with 4% paraformaldehyde, stained with crystal violet, and photographed under microscope.

For data set [4] the test system is unchanged. As to the kind of experiment: Anti-proliferation effect on osteosarcoma cell lines (statement for all four lines). Format: cell-based, Human. The settings on record: 0, 1, 2 or 4 μM for 24 or 48 hours; time- and concentration-dependent. As for the experimental part:
1.2.2 Detection of cell proliferation by cck-8: 143B cells, U2OS cells, MG63 cells and SJSA cells in logarithmic growth phase were collected, rinsed with PBS, counted, and dispensed into separate tubes. The cells were seeded into a 96-well plate (3000 cells/well) and cultured for 24 h to allow for cell attachment. Anlotinib with different amount-of-substance concentrations (0 μM, 1 μM, 2 μM, 4 μM, 8 μM, 16 μM, 32 μM, and 64 μM) were then added, the mixture was incubated for 24 h, and then the detection was carried out. 100 μL of cck-8 reagent diluted 10-fold with DMEM culture medium was added into each well and the resulting mixture was incubated at 37° C. for 45 minutes. The absorbance value of the resultant in each well at 450 nm was detected by using a microplate reader.
In order to evaluate the anti-proliferation effects of Anlotinib on osteosarcoma cell lines 143B, U2OS, MG63 and SJSA, the osteosarcoma cell lines were treated with Anlotinib with a concentration of 0 μM, 1 μM, 2 μM or 4 μM for 24 hours or 48 hours.

For data set [5], the system named is osteosarcoma of the right tibia, lung and pelvic metastasis. As to the kind of experiment: Clinical case Example 7: patient. The protocol:
A patient underwent the resection of the lesion on Nov. 7, 2016. On Nov. […] PORT implantation was performed under general anesthesia on Nov. 29, 2016, and the postoperative systemic intravenous adjuvant chemotherapy was performed. […] 1, 2016, and methotrexate (2 cycles of chemotherapy) was administered from Dec. 16, 2016 to Jan. 5, 2017. The CT re-examination performed on Jan. […] Ifosfamide (1 cycle of chemotherapy) was administered on Jan. […] The segmental resection of the tumor of the right proximal tibia, the joint replacement and the transposition of gastrocnemius muscle flap were performed under general anesthesia on Feb. 7, 2017. […] Ifosfamide (1 course of chemotherapy) was administered on Mar. […] Methotrexate was administered on Mar. […] 15, 2017. […] 4, 2017, ifosfamide chemotherapy was given on Jun. […] Methotrexate chemotherapy was given on Jul. […] Ifosfamide chemotherapy was given on Aug. […] The CT re-examination performed on Jan. […] A puncture biopsy of the mass of right femur was performed on Oct.
The patient was treated with anlotinib dihydrochloride capsule (12 mg) once a day via oral administration (2 weeks of continuous administration and 1 week of withdrawal being considered as one treatment cycle) from Nov. 16, 2018. […] 26, 2018.

Data set [6] deals with osteosarcoma (chondroblastic type) of the right proximal humerus, bilateral lung metastasis. As to the kind of experiment: Clinical case Example 6: patient. The settings on record: prior high-dose chemotherapy, 6 courses, Aug-Dec 2016. Format: in vivo, human. The protocol: A patient underwent the surgical removal of the osteosarcoma lesion in the right proximal humerus and the humeral head prosthesis replacement on Apr. 27, 2013. […] Doxorubicin and ifosfamide were administered after the surgery. […] Bone marrow support therapy was given during the intermission of chemotherapy until the end of chemotherapy in August 2013. […] 1. […] 2. There were enlarged lymph nodes in the right axilla with slight increase in metabolism. The patient was treated by being administered with CIK cells via infusion after the completion of the chemotherapy. At the end of 2015, the patient experienced pain in the upper part of the left humerus, no obvious mass was seen, and the patient suffered from the recurrent pain. […] 1. There was no sign of tumor recurrence in the right humerus after the surgery of the osteosarcoma of the right humerus and the comprehensive treatment, and there was a stripe-shaped hypermetabolic lesion in the upper part of the left humerus. 2. There was no sign of lymph node metastasis in the bilateral armpits. 3. […] On Jun. 7, 2016 and Jul. 1, 2016, the patient underwent 2 courses of doxorubicin and ifosfamide chemotherapy and the process went well. […] Microwave inactivation of the tumor of the left proximal humerus and the bone graft internal fixation was performed on Jul. 22, 2016. […]

Data set [7] deals with osteosarcoma of the right proximal fibula. As to the kind of experiment: Clinical case Example 8: patient. The class given is in vivo. The settings on record: prior chemotherapy, 1 cycle. As for the experimental part: A patient experienced a pain on the outer side of the right lower leg with no obvious predisposing cause for 6 months. The pain was persistent and unrelated to movements such as walking, and could not be alleviated after rest. The patient was neither diagnosed nor treated, and the pain was gradually aggravated and occurred at night. […] The patient went for consultation on Dec. 1, 2017, and an incision biopsy of the tumor of the limb was performed on December 5. […] On Apr.
Methotrexate chemotherapy was given for 1 day on Dec. 12, 2017, Feb. 7, 2018, May 4, 2018 and Jul. 6, 2018, respectively. IFO chemotherapy (1 cycle) was given during the following time periods: from Dec. 16, 2017 to […], from Mar. 2, 2018 to Mar. 7, 2018 (the therapeutic effect was evaluated as SD), from Apr. 18, 2018 to Apr. 22, 2018 (platelet reduction (Grade IV)), from Jun. 14, 2018 to Jun. 18, 2018 (the therapeutic effect was evaluated as SD), from Aug. 30, 2018 to Sep. 3, 2018 (the therapeutic effect was evaluated as PD). Cisplatin and amrubicin chemotherapy (1 cycle) was respectively given during the following time periods: from Jan. 17, 2018 to Jan. 20, 2018, from May 24, 2018 to May 27, 2018, and from Jul. 20, 2018 to Jul. 23, 2018 (the therapeutic effect was evaluated as SD). […]

In general, IC50 refers to the point on the concentration scale where inhibition reaches its midpoint. `COc1cc2c(Oc3ccc4[nH]c(C)cc4c3F)ccnc2cc1OCC1(N)CC1` [Anlotinib, 1-[[[4-(4-fluoro-2-methyl-1H-indol-5-yl)oxy-6-methoxyquinolin-7-yl]oxy]methyl]cyclopropylamine]: the IC50 in the data set on SJSA cells (24 h, read-out: IC50 (24 h)) was determined as 25.7 µM; with SJSA cells (48 h, read-out: IC50 (48 h)), 10.2 µM; in the data set on MG63 cells (MG63, 24 h, read-out: IC50 (24 h)), 30.1 µM; in the data set on MG63 cells (MG63, 48 h, read-out: IC50 (48 h)) it was 14.8 µM; in the data set on U2OS cells (24 h, read-out: IC50 (24 h)), 41.3 µM; with U2OS cells (48 h, read-out: IC50 (48 h)) it was 25.9 µM. The IC50 with 143B cells (24 h, read-out: IC50 (24 h)) was 20.8 µM; in the data set with 143B cells (48 h, read-out: IC50 (48 h)), 7.95 µM. Besides, the “apoptosis of osteosarcoma cell lines caused by cisplatin” value in data set [1] is reported as “significantly enhancing”. In addition, in data set [2], the cell cycle arrest result is “G2/M cycle arrest occurred in cells”. Moreover, in data set [2], the “cells in G1 phase” value is listed as “decrease of cells in G1 phase”. Further, the “migration of osteosarcoma cell lines” value in [3] is given as “greatly inhibited”. The “invasion of osteosarcoma cell lines” value in [3] (matrigel) was “greatly inhibited”. Also, the “effect on the proliferation of the osteosarcoma cell lines” value in data set [4] is “significant inhibitory effect”.

Take `CN(Cc1cnc2nc(N)nc(N)c2n1)c1ccc(C(=O)N[C@@H](CCC(=O)O)C(=O)O)cc1` [Methotrexate, methotrexate]: the “bone marrow suppression grade” value in data set [5] (human, in vivo) is reported as “Grade II”; in data set [6], “Grade I to II”.

As to `O=P1(NCCCl)OCCCN1CCCl` (centres unmarked) [Ifosfamide, ifosfamide], the platelet reduction grade entry in data set [7] (Apr. 18, 2018 to Apr. 22, 2018) is on record as “Grade IV”. Moreover, in data set [7] (Aug. 30, 2018 to Sep. 3, 2018), the therapeutic effect entry is recorded as “PD (progressive disease, specifically means that the sum of the diameters of the tumor target lesions increases by 20% or more from the baseline level)”. Further, the tolerability of chemotherapy entry in data set [5] (prior chemotherapy, 1 cycle, Jan. 19, 2017) was “no obvious gastrointestinal reaction and bone marrow suppression”. Also, the leucocytopenia grade result in data set [5] (prior chemotherapy, Aug. 16, 2017) is listed as “Grade IV”; in data set [5] (prior chemotherapy, Jun. 19, 2017 (after doxorubicin and cisplatin Jun. 4, 2017)) it was “Grade IV”; in data set [5] (prior chemotherapy, Mar. 10, 2017), “Grade II”; in data set [5] (prior chemotherapy, May 3, 2017), “Grade IV”.
